From patent publication US20140155609A9, “QUINOLINE DERIVATIVE COMPOUND, METHOD FOR PREPARING SAME, AND PHARMACEUTICAL COMPOSITION CONTAINING SAME” (Dong-A ST Co., Ltd., priority 2010, published 2014)

What was measured:
[1] = target: T1, human dopamine D2 receptor (Homo sapiens, UniProt P14416); experiment: Assay for affinity for dopamine receptor (3H-spiperone competitive binding); conditions: 10 μM compound; 0.16 nM tritium spiperone; CHO cells transfected with human dopamine D2; mean of two experiments
T1 construct: expressed in transfected cells; host or cells: CHO (Chinese hamster ovary) cells
Experimental: Affinity of the compounds of the present invention for the dopamine-D2 receptor, which is found in the wall of the gastric tract of mammals and inhibits gastric motility, was determined by measuring competitive inhibition against the binding to the receptor of a radio-labeled ligand which is known for its affinity for the receptor. In this regard, the experiment was performed according to the method described in [Heys G et al. Mol. Endocrinol. 6:920, 1992] and [Grandy D K et al. Proc Natl Acad Sci USA. 86:9762, 1989].
In tris-HCl buffer ([…], pH 7.4, 120 mM NaCl, 5 mM KCl, 2 mM CaCl2, 1 mM MgCl2) 150 μg of Chinese hamster ovary (CHO) cells transfected with a human dopamine D2, gene were incubated at 25° C. for 120 min with 0.16 nM of tritium Spiperone (^3[H] Spiperon [NEN, 250 μCi]) and 10 μM of the compound of interest. After completion of the incubation, the incubation mixture was filtered through Whatman GF/B filter (unifilter-96 Lot: 6005177, PerkinElmer) to separate ligand-bound receptors. […] Then, 10 mL of a scintillation cocktail (Lot: 03999, Fluka) was added and reacted for 16 hrs or longer to measure radiation activity using a beta-counter (Packcard) in order to calculate the quantity of tritium spiperone bound to the receptor. […] The experiment was independently carried out twice, and receptor affinity was calculated using the following Equation 1. […]

human 5-HT1A receptor = target: T2, human 5-HT1A receptor (Homo sapiens, UniProt P08908); experiment: Assay for affinity for serotonin-1A receptor (3H 8-OH-DPAT competitive binding); conditions: 10 μM compound; 1.5 nM 3[H] 8-OH-DPAT; CHO cells transfected with human 5-HT1A receptor; mean of two experiments
T2 construct: expressed in transfected cells; host or cells: CHO (Chinese hamster ovary) cells
T2 sequence (P08908 1-422): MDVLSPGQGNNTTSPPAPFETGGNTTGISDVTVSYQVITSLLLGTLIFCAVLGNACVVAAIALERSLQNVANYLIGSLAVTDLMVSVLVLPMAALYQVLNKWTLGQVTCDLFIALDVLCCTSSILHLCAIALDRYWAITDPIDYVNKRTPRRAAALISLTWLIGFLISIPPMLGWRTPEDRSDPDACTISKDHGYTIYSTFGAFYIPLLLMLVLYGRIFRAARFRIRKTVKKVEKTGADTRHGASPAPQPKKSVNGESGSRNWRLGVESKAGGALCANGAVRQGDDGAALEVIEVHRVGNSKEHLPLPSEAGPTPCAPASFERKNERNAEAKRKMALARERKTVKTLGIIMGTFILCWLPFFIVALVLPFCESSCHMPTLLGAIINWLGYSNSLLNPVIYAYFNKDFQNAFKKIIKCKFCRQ
Experimental: Compounds of the present invention were examined for affinity for the serotonin-1A receptor which can increase gastric accommodation in response to an agonist.
In tris-HCl buffer (50 mM Tris-HCl, pH 7.4, 120 mM NaCl, 5 mM KCl, 2 mM CaCl2, 1 mM MgCl2), 150 μg of Chinese hamster ovary (CHO) cells transfected with a human […] 5-HT1A receptor were incubated at 37° C. for 1.5 hrs with 1.5 nM of ^3[H] 8-OH-DPAT and 10 μM of the compound of interest of Example. After completion of the incubation, the incubation mixture was filtered through Whatman GF/B filter (unifilter-96, Lot: 6005177, PerkinElmer) to separate ligand-bound receptors. These bound receptors were washed three times with 5 mL of a Tris-HCl buffer. Then, 10 mL of a scintillation cocktail (Lot: 03999, Fluka) was added, and reacted for 16 hrs or longer with to measure radiation activity using a beta-counter (Packcard) in order to calculate the quantity of ^3[H] 8-OH-DPAT bound to the receptor.
Meanwhile, 10 μM of metergoline was also incubated in the presence of 1.5 nM of ^3[H] 8-OH-DPAT to determine a nonspecific binding value. The experiment was independently carried out twice, and receptor affinity was calculated using the following Equation 2. […]

serotonin-1B receptor = target: T3, serotonin-1B receptor (Rattus norvegicus, UniProt P28564); experiment: Assay for affinity for serotonin-1B receptor (125I cyanopindolol binding, rat cerebral cortex membranes); conditions: 10 μM compound, mean of two experiments
T3 construct: cell membranes of the cerebral cortex excised from male Winstar rats; from tissue; host or cells: rat cerebral cortex membranes (male Wistar rats)
Experimental: Compounds of the present invention were examined for affinity for the serotonin-1B receptor which can exert a relaxation effect on the stomach and relieve impaired gastric accommodation of functional dyspepsia patients in response to an agonist.
In a Tris-HCl buffer (50 mM Tris-HCl, pH 7.4, 120 mM NaCl, 5 mM KCl, 2 mM CaCl2, 1 mM MgCl2), 4 mg of cell membranes of the cerebral cortex excised from male Winstar rats, each weighing 175±25 g, was incubated at 37° C. for 1.5 hrs with […] of ^125[I] cyanopindolol (PerkinElmer, 100 μCi) and 10 μM of the compound of interest of the present invention per well. After completion of the incubation, the incubation mixture was filtered through Whatman GF/B filter (unifilter-96, Lot: 6005177, PerkinElmer) to separate ligand-bound receptors. These bound receptors were washed three times with 5 mL of a Tris-HCl buffer. Then, 10 mL of a scintillation cocktail (Lot: 03999, Fluka) was added, and reacted for 16 hrs or to measure a radiation activity using a beta-counter (Packcard) in order to calculate the quantity of ^125[I] cyanopindolol bound to the receptor.
Meanwhile, 10 μM of serotonin (H9523, Sigma) was incubated in the presence of […] of ^125[I] cyanopindolol to determine a nonspecific binding value. The experiment was independently carried out twice, and receptor affinity was calculated using the following Equation 3. […]

normal rat = experiment: Gastric emptying effect on normal rat; format: in vivo, Sprague-Dawley rats
Experimental: Gastric emptying activity of the compounds of the present invention was examined in the following experiment.
Sprague-Dawley rats with an age of 6 weeks were divided into groups according to weight, and acclimated for one week at a temperature of 22˜24° C. and a humidity of 60-80% while a standard diet and water were provided. Thereafter, they were starved for 24 hrs before an experiment while water was provided. From 3 hrs before the experiment, no more water was provided. A 3% hydroxy propyl methyl cellulose solution containing the compound of Example in an amount of 10 μg/kg was orally administered at a dose of 1 mL to each rat.
After 45 min, a semi-solid test meal (0.05% phenol red solution containing 1.5% MC), prepared by mashing feeds in water, was orally administered in an amount of 2 mL to each rat. After 35 min, the SD rats were killed, and the stomach was excised, and weighed carefully lest the gut content was leaked. Subsequently, the stomach was washed with distilled water to remove the gut content, dried, and weighed again, in order to calculate the weight of the semi-solid test meal left in the gut. In Table 4, the control was orally administered with 1 mL of 3% […].
Gastric Emptying(%)=[1−(weight of semi-solid test meal left in gut/weight of semi-solid test meal at 0-time)]×100 [Equation 4] […]

T3 sequence (P28564 whole entry): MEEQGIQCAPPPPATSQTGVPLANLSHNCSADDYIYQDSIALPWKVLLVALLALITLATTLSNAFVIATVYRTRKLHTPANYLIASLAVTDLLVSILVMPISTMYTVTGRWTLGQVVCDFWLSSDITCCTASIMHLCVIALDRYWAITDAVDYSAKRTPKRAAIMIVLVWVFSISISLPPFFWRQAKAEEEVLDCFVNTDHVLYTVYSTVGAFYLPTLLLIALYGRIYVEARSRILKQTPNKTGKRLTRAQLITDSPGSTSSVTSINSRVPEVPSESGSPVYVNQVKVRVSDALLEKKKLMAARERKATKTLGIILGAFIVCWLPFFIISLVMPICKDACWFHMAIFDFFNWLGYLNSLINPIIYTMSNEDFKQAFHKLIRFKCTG
T1 sequence (P14416 whole entry): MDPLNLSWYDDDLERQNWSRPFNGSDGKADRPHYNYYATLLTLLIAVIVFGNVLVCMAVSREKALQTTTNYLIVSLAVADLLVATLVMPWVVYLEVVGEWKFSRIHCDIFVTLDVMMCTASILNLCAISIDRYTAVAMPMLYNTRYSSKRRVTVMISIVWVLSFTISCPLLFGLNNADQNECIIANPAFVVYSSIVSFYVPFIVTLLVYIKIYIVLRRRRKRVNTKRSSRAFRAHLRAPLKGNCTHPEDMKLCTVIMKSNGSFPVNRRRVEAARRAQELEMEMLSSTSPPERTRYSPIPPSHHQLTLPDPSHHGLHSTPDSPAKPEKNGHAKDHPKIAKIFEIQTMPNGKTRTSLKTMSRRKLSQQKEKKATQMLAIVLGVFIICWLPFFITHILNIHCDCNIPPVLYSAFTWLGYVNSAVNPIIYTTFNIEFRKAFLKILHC

- Affinity (%) [1]: 46%
- Affinity (%) (human 5-HT1A receptor): 41%
- Affinity (%) (serotonin-1B receptor): 92%
SMILES: CCOC(=O)CCC(=O)N1CCc2cc(OC)c(OC)c3c2[C@@H]1Cc1cc(OC)c(OC)cc1-3 [Example 1, (S)-4-oxo-4-(1,2,9,10-tetramethoxy-4,5,6a,7-tetrahydro-dibenzo[de,g]quinoline-6-yl)-butyric acid ethyl ester]
- Gastric Emptying (%) (normal rat; dose 10 μg/kg oral, 45 min before semi-solid test meal, stomach excised 35 min after meal, control 24.3): 47.8%
- increase of gastric emptying compared to the control (normal rat; normal rats, oral dose 10 μg/kg): roughly two-fold
